Laboratory results published in ChEMBL document CHEMBL1139662, “Synthesis and biological investigation of new 4''-malonyl tethered derivatives of erythromycin and clarithromycin” (Bioorg Med Chem Lett, 2006).
Converted amounts (≈) assume the structure as drawn.

How the values were obtained:
[1] = test system: Escherichia coli; experiment: Inhibition of protein synthesis in Escherichia coli cell-free translational system; type: functional
[2] = test system: Escherichia coli; experiment: Antibacterial activity against macrolide-sensitive Escherichia coli HN818; type: functional

SMILES | IC50 [1] [µM] | MIC [2] [µg/mL]
CC[C@H]1OC(=O)[C@H](C)[C@@H](OC2C[C@@](C)(OC)[C@@H](OC(=O)CC(=O)O)[C@H](C)O2)[C@H](C)[C@@H](OC2O[C@H](C)C[C@H](N(C)C)[C@H]2O)[C@](C)(O)C[C@@H](C)C(=O)[C@H](C)[C@@H](O)[C@]1(C)O (stereo partly drawn) | 3.7 | 128 (≈ 156 µM)
CC[C@H]1OC(=O)[C@H](C)[C@@H](O[C@H]2C[C@@](C)(OC)[C@@H](O)[C@H](C)O2)[C@H](C)[C@@H](O[C@@H]2O[C@H](C)C[C@H](N(C)C)[C@H]2O)[C@](C)(O)C[C@@H](C)C(=O)[C@H](C)[C@@H](O)[C@]1(C)O [ERYTHROMYCIN] | 0.9 | 2 (≈ 2.73 µM)
CC[C@H]1OC(=O)[C@H](C)[C@@H](OC2C[C@@](C)(OC)[C@@H](OC(=O)CC(=O)O)[C@H](C)O2)[C@H](C)[C@@H](OC2O[C@H](C)C[C@H](N(C)C)[C@H]2O)[C@](C)(OC)C[C@@H](C)C(=O)[C@H](C)[C@@H](O)[C@]1(C)O (stereo partly drawn) | 3.9 | 128 (≈ 153 µM)

Continued by falling MIC [2], values first:

IC50 [1] [µM] | MIC [2] [µg/mL] | SMILES
1.1 | 8 (≈ 8.85 µM) | CC[C@H]1OC(=O)[C@H](C)[C@@H](OC2C[C@@](C)(OC)[C@@H](OC(=O)CC(=O)N(C)CCN(C)C)[C@H](C)O2)[C@H](C)[C@@H](OC2O[C@H](C)C[C@H](N(C)C)[C@H]2O)[C@](C)(O)C[C@@H](C)C(=O)[C@H](C)[C@@H](O)[C@]1(C)O (stereo partly drawn)
1.2 | 8 (≈ 8.66 µM) | CC[C@H]1OC(=O)[C@H](C)[C@@H](OC2C[C@@](C)(OC)[C@@H](OC(=O)CC(=O)OCc3ccccc3)[C@H](C)O2)[C@H](C)[C@@H](OC2O[C@H](C)C[C@H](N(C)C)[C@H]2O)[C@](C)(OC)C[C@@H](C)C(=O)[C@H](C)[C@@H](O)[C@]1(C)O (stereo partly drawn)
1.1 | 8 (≈ 8.79 µM) | CC[C@H]1OC(=O)[C@H](C)[C@@H](OC2C[C@@](C)(OC)[C@@H](OC(=O)CC(=O)OCc3ccccc3)[C@H](C)O2)[C@H](C)[C@@H](OC2O[C@H](C)C[C@H](N(C)C)[C@H]2O)[C@](C)(O)C[C@@H](C)C(=O)[C@H](C)[C@@H](O)[C@]1(C)O (stereo partly drawn)
 | 2 (≈ 2.67 µM) | CC[C@H]1OC(=O)[C@H](C)[C@@H](O[C@H]2C[C@@](C)(OC)[C@@H](O)[C@H](C)O2)[C@H](C)[C@@H](O[C@@H]2O[C@H](C)C[C@H](N(C)C)[C@H]2O)[C@](C)(OC)C[C@@H](C)C(=O)[C@H](C)[C@@H](O)[C@]1(C)O [CLARITHROMYCIN]
